Experimental data reported in patent publication US5607691A, “Compositions and methods for enhanced drug delivery” (priority 1995, dated 1997).
Counter-ions that a name gives are not always drawn. Like-named read-outs stand apart in the source and are kept apart here.

Experiment: in vitro
Assay type: in vitro ADME, human
Source text: Table 4 lists the serum half-lives for several model compounds and two representative pharmaceutical agent-chemical modifier complexes using an in vitro assay system described in the Experimental section below. Of course, the serum half-lives will vary in vivo depending upon the age and health condition of the patient. Each complex comprises a model compound or a pharmaceutical agent, a spacer group, and a chemical modifier. Many of the model compounds utilize 4-nitrophenyl(ethanol, propanol, or cyclohexanol) or 4-nitrophenylethylamine as the "model" pharmaceutical agent. A more complete listing of serum half-lives may be found in the Experimental section below.
General procedure for serum hydrolysis of pharmaceutical agent-modifier complexes
Stock solutions (6 mM) of the pharmaceutical agent-modifier complexes were prepared in ethanol (by vortexing, sonication or warming at 37° C. if necessary). If required for solubility, a drop of dimethylsulfoxide, dimethylformamide or methanol may be added. (Acetonitrile cannot be used because it deactivates the serum enzymes.)
HPLC separation methods were established for each study by dilution of the above stock solution (6 μl) in acetonitrile (1 ml) to give a 36 μM solution. Samples (10 μl) were injected onto a Nucleosil 5C8 (250×4 mmID) and guard column (11×4 mm ID) and eluted with a mobile phase of approximately 65% HPLC grade water and 35% of a solution of 0.1% trifluoroacetic acid in acetonitrile, the exact proportions being adjusted in each case to give optimum separation and run times.
Freshly defrosted human serum (3 ml, Sigma) was warmed at 37° C. for five minutes and then 60 μl of the agent-modifier complex stock solution was added with vortexing. […] The aliquots were added to 800 μl of 2% zinc sulfate solution in a 1.5 ml disposable microcentrifuge tube, vortexed immediately and centrifuged at 14,000 RPM for 3 minutes. The supernatants (10 μl) were then injected onto the HPLC and peak areas were used to determine the % remaining. Serum blanks were prepared similarly by addition of serum to the zinc sulfate solution followed by centrifugation, and time=0 samples were also prepared by adding serum to the zinc sulfate solution followed by addition of the complex and separation by centrifugation. The time=0 samples, as well as the original stock solutions, were also used to study the stability of the complex in the absence of enzyme. Half-lives were calculated using the equation
by plotting time (x) vs. ln % remaining (y) to obtain the slope (m) and the y intercept (b).

[1] = human, serum, Table 5, human serum, 37° C., read-out: Serum Half-life (converted)
[2] = human, serum, untitled table of digoxin derivatives (position/substituent), assay not given, read-out: Half Life (converted)

Row | SMILES | half-life [1] | also measured
1 | COc1ccc2c(c1)c(CC(=O)O[C@H](CC(=O)O)C[N+](C)(C)C)c(C)n2C(=O)c1ccc(Cl)cc1 [O-indomethacinyl-(L-carnitine hydrochloride)] | > 30 min | 
2 | CC(=O)OC(CC(=O)OCCCCCCCCCC(=O)OCC(=O)OC1=CC2=CC[C@H]3[C@@H]4CC[C@H](C(C)=O)[C@@]4(C)CC[C@@H]3[C@@]2(C)CC1)C[N+](C)(C)C (some centres unmarked) [Progesterone 3-{2-O-[10-O-(O-acetylcarnitinyl)decanoyl]glycolic acid} enol ester] |  | In vitro Half-Life (Table 4, human serum, 37° C.): 28.9 min; Serum Half-life (Table 5, human serum, 37° C.): 28.9 min
3 | CC(=O)OC1CC(C(=O)OCCc2ccc([N+](=O)[O-])cc2)[N+](C)(C)C1 (centres unmarked) [betonicine-O-acetate 4-nitrophenethyl ester] | 6 min | 
4 | C#CC[N+](C)(COC(C)=O)C(C)Cc1ccccc1 (centres unmarked) [deprenyl-N-acetoxymethyl, bromide salt] | 4.2 min | 
5 | C#CC[N+](C)(COC(=O)c1ccccc1)C(C)Cc1ccccc1 (centres unmarked) [deprenyl-N-benzoyloxymethyl, iodide salt] | 5 min | 
6 | C#CC[N+](C)(C(C)Cc1ccccc1)C(C)OC(=O)CCC.[Br-] (centres unmarked) [deprenyl-N-butyroyloxy-1-ethyl, bromide salt] |  | Serum Half-life (human, serum): 28 min
7 | C#CC[N+](C)(COC(=O)CCC)C(C)Cc1ccccc1 (centres unmarked) [deprenyl-N-butyroyloxymethyl, iodide salt] | 0.283 min | 
8 | C#CC[N+](C)(COC(=O)OCC)C(C)Cc1ccccc1 (centres unmarked) [deprenyl-N-ethoxycarbonyloxymethyl, iodide salt] | 1.18 min | 
9 | C#CC[N+](C)(COC(=O)OCCCCCCCC)C(C)Cc1ccccc1 (centres unmarked) [deprenyl-N-octyloxycarbonyloxymethyl, iodide salt] | 0.433 min | 
10 | C#CC[N+](C)(COC(=O)C(C)(C)C)C(C)Cc1ccccc1 (centres unmarked) [deprenyl-N-pivaloyloxymethyl, iodide salt] | 20 min | 
11 | C[C@]12CC[C@H](OC(=O)CCCCCN3CCOCC3)C[C@H]1CC[C@@H]1[C@@H]2CC[C@]2(C)[C@@H](C3=CC(=O)OC3)CC[C@]12O [digitoxigenin-3-(6-morpholino-hexanoate)] | 14900 min | 
12 | CC(=O)O[C@H](CC(=O)O[C@H]1CC[C@@]2(C)[C@H](CC[C@@H]3[C@@H]2CC[C@]2(C)[C@@H](C4=CC(=O)OC4)CC[C@]32O)C1)C[N+](C)(C)C [digitoxigenin-3-(O-acetyl-L-carnitine) ester, chloride salt] | 324 min | 
13 | C[C@]12CC[C@H](OC(=O)OCC[N+](C)(C)C)C[C@H]1CC[C@@H]1[C@@H]2CC[C@]2(C)[C@@H](C3=CC(=O)OC3)CC[C@]12O [digitoxigenin-3-(O-choline chloride carbonate) ester] | 13.6 min | 
14 | CCCCCCCCCCCCCCCC(=O)O[C@H](CC(=O)O[C@H]1CC[C@@]2(C)[C@H](CC[C@@H]3[C@@H]2CC[C@]2(C)[C@@H](C4=CC(=O)OC4)CC[C@]32O)C1)C[N+](C)(C)C [digitoxigenin-3-(O-palmityl-L-carnitine) ester, chloride salt] | ~180 min | 
15 | CC(=O)OC(CC(=O)NCCCCCCOC(=O)O[C@H]1[C@@H](O)C[C@H](O[C@H]2[C@@H](O)C[C@H](O[C@H]3[C@@H](O)C[C@H](O[C@H]4CC[C@@]5(C)[C@H](CC[C@@H]6[C@@H]5CC[C@]5(C)[C@@H](C7=CC(=O)OC7)CC[C@]65O)C4)O[C@@H]3C)O[C@@H]2C)O[C@@H]1C)C[N+](C)(C)C (some centres unmarked) [digitoxin-4"'-6-[O-(acetylcarnitinamido)hexyl]carbonate ester] | 34.8 min | 
16 | C[C@H]1O[C@@H](O[C@H]2[C@@H](O)C[C@H](O[C@H]3[C@@H](O)C[C@H](O[C@H]4CC[C@@]5(C)[C@H](CC[C@@H]6[C@@H]5CC[C@]5(C)[C@@H](C7=CC(=O)OC7)CC[C@]65O)C4)O[C@@H]3C)O[C@@H]2C)C[C@H](O)[C@@H]1OC(=O)OCC[N+](C)(C)C [digitoxin-4"'-(choline chloride) carbonate ester] | 5.3 min | 
17 | C[C@H]1O[C@@H](O[C@H]2[C@@H](O)C[C@H](O[C@H]3[C@@H](O)C[C@H](O[C@H]4CC[C@@]5(C)[C@H](CC[C@@H]6[C@@H]5C[C@@H](OC(=O)OCOC(=O)CCCCC[N+](C)(C)C)[C@]5(C)[C@@H](C7=CC(=O)OC7)CC[C@]65O)C4)O[C@@H]3C)O[C@@H]2C)C[C@@H]2OC(=O)O[C@@H]21 [digoxin 12-(6-trimethylaminohexanoyloxymethyl carbonate)-3"',4"'-cyclic carbonate, bromide salt] | 168 min | half-life [2]: 168 min
18 | CC1OC(OC2CCC3(C)C(CCC4C3CC(O)C3(C)C(C5=CC(=O)OC5)CCC43O)C2)CC(O)C1OC1CC(O)C(OC2CC3OC(=O)OC3C(C)O2)C(C)O1 (centres unmarked) [digoxin-3'",4'"-cyclic carbonate] | 0.15 min | 
19 | CC1OC(OC2C(C)OC(OC3C(C)OC(OC4CCC5(C)C(CCC6C5CC(OC(=O)OCOC(=O)CCCCC[N+](C)(C)C)C5(C)C(C7=CC(=O)OC7)CCC65O)C4)CC3OC(=O)OCOC(=O)CCCCC[N+](C)(C)C)CC2OC(=O)OCOC(=O)CCCCC[N+](C)(C)C)CC2OC(=O)OC12 (centres unmarked) [digoxin-3',3",12-tris-(6-trimethylaminohexanoyloxymethyl carbonate)-3'",4""-cyclic carbonate, tribromide salt] |  | Serum Half-life (Table 5, human serum, 37° C.): 840 min
20 | CC1OC(OC2C(C)OC(OC3C(C)OC(OC4CCC5(C)C(CCC6C5CC(O)C5(C)C(C7=CC(=O)OC7)CCC65O)C4)CC3OC(=O)OCOC(=O)CCCCC[N+](C)(C)C)CC2OC(=O)OCOC(=O)CCCCC[N+](C)(C)C)CC2OC(=O)OC12 (centres unmarked) [digoxin-3',3"-bis-(6-trimethylaminohexanoyloxymethyl carbonate)-3'",4'"-cyclic carbonate, bromide salt] | 600 min | half-life [2]: 600 min
21 | CC1OC(OC2C(C)OC(OC3C(C)OC(OC4CCC5(C)C(CCC6C5CC(O)C5(C)C(C7=CC(=O)OC7)CCC65O)C4)CC3OC(=O)OCC[N+](C)(C)C)CC2OC(=O)OCC[N+](C)(C)C)CC2OC(=O)OC12 (centres unmarked) [digoxin-3',3"-bis-(choline carbonate)-3'",4'"-cyclic carbonate, dibromide salt] | 2040 min | 
22 | C[C@H]1O[C@@H](O[C@H]2[C@@H](O)C[C@H](O[C@H]3[C@@H](O)C[C@H](O[C@H]4CC[C@@]5(C)[C@H](CC[C@@H]6[C@@H]5C[C@@H](O)[C@]5(C)[C@@H](C7=CC(=O)OC7)CC[C@]65O)C4)O[C@@H]3C)O[C@@H]2C)C[C@H](O)[C@@H]1OC(=O)CCCOC(=O)CCC[N+](C)(C)C [digoxin-4"'-4-(4-trimethylaminobutyroyloxy)butyrate, bromide salt] | 420 min | 
23 | CCCCCCCCCCCCCCCC(=O)OC(CC(=O)NCCCCCCOC(=O)OC1C(O)CC(OC2C(O)CC(OC3C(O)CC(OC4CCC5(C)C(CCC6C5CC(O)C5(C)C(C7=CC(=O)OC7)CCC65O)C4)OC3C)OC2C)OC1C)C[N+](C)(C)C (centres unmarked) [digoxin-4"'-6-O-palmitoylcarnitinamido)hexyl carbonate, chloride salt] | 21 min | 
24 | CC1OC(OC2C(O)CC(OC3C(O)CC(OC4CCC5(C)C(CCC6C5CC(O)C5(C)C(C7=CC(=O)OC7)CCC65O)C4)OC3C)OC2C)CC(O)C1OC(=O)OCCCCCCOC(=O)C[N+](C)(C)C (centres unmarked) [digoxin-4"'-[1-(6-betainoyloxyhexyl)]carbonate, chloride salt] | 21 min | 
25 | CC(=O)OC1CC(C(=O)O[C@H]2[C@@H](O)C[C@H](O[C@H]3[C@@H](O)C[C@H](O[C@H]4[C@@H](O)C[C@H](O[C@H]5CC[C@@]6(C)[C@H](CC[C@@H]7[C@@H]6C[C@@H](O)[C@]6(C)[C@@H](C8=CC(=O)OC8)CC[C@]76O)C5)O[C@@H]4C)O[C@@H]3C)O[C@@H]2C)[N+](C)(C)C1 (some centres unmarked) [digoxin-4"'-[(O-acetyl)-betonicine ester], chloride salt] | 1.8 min | 
26 | CC1OC(OC2C(O)CC(OC3C(O)CC(OC4CCC5(C)C(CCC6C5CC(O)C5(C)C(C7=CC(=O)OC7)CCC65O)C4)OC3C)OC2C)CC(O)C1OC(=O)CCCN(C)C (centres unmarked) [digoxin-4'"-4-(dimethylamino)butyrate] | 84 min | 
27 | CC1OC(OC2C(O)CC(OC3C(O)CC(OC4CCC5(C)C(CCC6C5CC(O)C5(C)C(C7=CC(=O)OC7)CCC65O)C4)OC3C)OC2C)CC(O)C1OC(=O)CCC[N+](C)(C)C (centres unmarked) [digoxin-4'"-(4-trimethylamino)butyrate bromide] | 420 min | 
28 | CC(=O)OC(CC(=O)OC1C(O)CC(OC2C(O)CC(OC3C(O)CC(OC4CCC5(C)C(CCC6C5CC(O)C5(C)C(C7=CC(=O)OC7)CCC65O)C4)OC3C)OC2C)OC1C)C[N+](C)(C)C (centres unmarked) [digoxin-4'"-(O-acetylcarnitinate) chloride salt] | 5 min | 
29 | CCCCCCCCCCCCCCCC(=O)OC(CC(=O)OC1C(O)CC(OC2C(O)CC(OC3C(O)CC(OC4CCC5(C)C(CCC6C5CC(O)C5(C)C(C7=CC(=O)OC7)CCC65O)C4)OC3C)OC2C)OC1C)C[N+](C)(C)C (centres unmarked) [digoxin-4'"-(O-palmitoylcarnitinate) chloride salt] | 19 min | 
